Assays:
[1] = system: Luxarray 0.5 reporter clones; experiment: Luxarray 0.5 solid phase perturbation with nalidixic acid (luminometer); format: cell-based, E. coli; settings: 1 and 5 μg/ml plates, 2 hrs
Protocol: A solid phase assay system consisting of reporter clones growing in the presence or absence of a perturbation, biological, environmental was developed. This was accomplished by growing the reporters on a porous membrane (Biodyne B, Nunc) seated on top of solid growth media in a culture dish (OmniTray, Nunc). Luminescence was measured either by a luminometer or by creating an image of the entire culture and quantitating the pixel density. Effects of perturbants can be determined by comparison of luminescence generated by treated and control cultures. Growth on the surface of the membrane allows the reporter assay to be moved between conditions as required. […]
Membranes were sterilized with UV illumination for 10 min then placed in contact with prewarmed media in a culture dish. […] Luminescence data was collected for each spot for 40 cycles of 20 min duration (overnight). […] Without exception, the signal strength measured corroborated the data obtained in liquid culture. […]
Next the system was evaluated for its ability to determine responses to perturbation, in this case, DNA damage caused by nalidixic acid Parental clone and two nonresponding reporters, osmY, and lacZYA, and three DNA damage responsive reporters, uvrA, recA, dinG, were chosen. […] The membranes were moved to new, pre-warmed plates containing varying amounts of nalidixic acid and light readings collected with an ML3000 luminometer. […]

[2] = system: heat shock regulon gene fusions; experiment: Stress response of heat shock regulon luxCDABE gene fusions (ethanol); format: cell-based, E. coli; settings: clpB-luxCDABE fusion (heat shock regulon), DPD2243; 5 μg/ml nalidixic acid, 110 minutes
Protocol: To test the stress responses, one or two single colonies of each selected strain were used to inoculate 5.0 ml of LB medium containing 150 μg/ml of ampicillin. These cultures were grown overnight at 37° C. then diluted by adding 50 μl or 100 μl of the overnight culture into 10.0 ml of fresh LB medium (without ampicillin) and grown with agitation at 37° C. until the culture was in exponential phase with readings on a Klett-Summerson colorimeter containing the red filter of between 10 and 40. These actively growing cultures were immediately used to initiate a stress response experiment by adding 50 μl of cultures to 50 μl of LB medium containing various concentrations of chemical in the wells a 96 well luminometer plate. This division of the actively growing culture at the time of chemical addition ensured identical populations were present when the stress was imposed. Light production was measured in a Dynex ML3000 luminometer at 37° C. The dimensionless units of light production, relative light units (RLU), are obtained by comparison with the light reading from an internal light-emitting diode. The cycle mode of the ML3000 luminometer, similar to previous descriptions (Van Dyk et al., Appl. Environ. Microbiol. 60:1414-120) was used. […]

[3] = system: uhpT-luxCDABE gene fusion (E. coli strain DPD3228); experiment: Verification of uhpT-lux upregulation by limonene; format: cell-based; settings: late response, maximal at highest conc, also detected at 40% or 20% of saturating amounts (FIG. 10)
Protocol: E. coli strain DPD3228 is identical to lux-a.pk034.b9 the strain containing the uhpT-luxCDABE gene fusion. This strain was grown overnight at 37° C. in LB medium containing 100 μg/ml ampicillin and diluted the following day into LB medium and grown to log phase at 37° C. 20 μl aliquots of this culture were added to 80 μl of LB medium saturated with limonene, to 80 μl of a series of two fold dilutions into LB medium of LB saturated with limonene, and to 80 μl of LB medium. Light production was measured in a Luminoskan Ascent (Labsystems) microplate luminometer at 37° C. […] Similar to the initial LuxArray observations, a late response to the presence of limonene was observed. This response was maximal at the highest concentration of limonene tested, but was also detected when limonene was present at 40% or 20% of saturating amounts in LB medium.

| Structure (SMILES) | bioluminescence on solid medium ([1]; SOS regulon reporters uvrA, recA, dinG) | bioluminescence on solid medium ([1]; non-DNA damage responsive fusions osmY and lacZYA) | Response Ratio [2] | upregulation of bioluminescence of uhpT-luxCDABE strain [3] |
| --- | --- | --- | --- | --- |
| CCn1cc(C(=O)O)c(=O)c2ccc(C)nc21 [Nalidixic acid, nalidixic acid] | increased bioluminescence | unaffected | 0.40 |  |
| C=C(C)[C@H]1CC=C(C)CC1 [limonene] |  |  |  | upregulation of bioluminescence from this strain by limonene was confirmed |

Reference: patent publication US20040009485A1, “Cellular arrays for the identification of altered gene expression” (priority 2002, published 2004)
